# Biological target: T1, NLRP3 (Homo sapiens, UniProt Q96P20)
# T1 construct: host or cells: PMA-differentiated THP-1 cells
# Experiment: Measurement of IL-1β production in PMA-differentiated THP-1 cells (NLRP3 hIL1B)
# Type: cell-based
# Experimental: Measurement of IL-1β Production in PMA-Differentiated THP-1 Cells
# THP-1 cells were purchased from the American Type Culture Collection and sub-cultured according to instructions from the supplier. Prior to experiments, cells were cultured in RPMI 1640 containing 10% heat inactivated FBS, penicillin (100 units/ml) and streptomycin (100 μg/ml), and maintained in log phase prior to experimental setup. Prior to the experiment THP-1 were treated with PMA (Phorbol 12-myristate 13-acetate) (10 μg/ml) for 24 hours. The day of the experiment the media was removed and attaching cells were treated with trypsin for 2 minutes, cells were then collected, washed with PBS (phosphate buffer saline), spin down, resuspended in 2% heat inactivated FBS with RPMI at a concentration of 1×10^6 cells/ml, and 100 μl was plated in a 96 well plate. Compounds were dissolved in dimethyl sulfoxide (DMSO) and added to the culture medium to achieve desired concentration (e.g. 100, 30, 10, 3, 1, 0.3 or 0.1 μM). Cells were incubated with compounds for 4 hours. Cell free supernatant was collected and the production of IL-1β was evaluated by ELISA. A vehicle only control was run concurrently with each experiment. Final DMSO concentration was 1%.
# Measurement of IL-1β Production in PMA-Differentiated THP-1 Cells (Alternative Procedure)
# THP-1 cells were purchased from the American Type Culture Collection and sub-cultured according to instructions from the supplier. Prior to experiments, cells were cultured in RPMI 1640 containing 10% heat inactivated FBS, penicillin (100 units/ml), streptomycin (100 μg/ml), HEPES (10 mM) and sodium pyruvate (1 mM) and maintained in log phase prior to experimental setup. Prior to the experiment, THP-1 cells were treated with PMA (Phorbol 12-myristate 13-acetate) (20 μg/ml) overnight. The day of the experiment, the media was removed and attached cells were treated with trypsin for 2 minutes, cells were then collected, washed with PBS (phosphate buffer saline), pelleted by centrifugation and resuspended in 2% heat inactivated FBS with RPMI at a concentration of 50,000 cells/well in a 384 well plate. Cell free supernatant was collected and the production of IL-1β was evaluated by ELISA. Compounds were dissolved in dimethyl sulfoxide (DMSO) and added to the culture medium to achieve desired concentration (e.g. 100, 30, 10, 3, 1, 0.3 or 0.1 μM). Cells were incubated with compounds for 2 hours. A vehicle only control was run concurrently with each experiment. Final DMSO concentration was 1%.
# Measurement of IL-1β Production—hTRF Protocol (Second Alternative Procedure)
# Serial dilutions of compounds in DMSO were added to low volume 384 well plates at 100 nl/well using an ECHO 550 acoustic dispenser (Labcyte) to achieve final starting concentration of 10 μM in assay.
# THP-1 cells in RPMI (Gibco, 11875) media with 10% FBS at a density of 1×10^6 cell/ml in a T175 flask were treated with a final concentration of phorbol 12-myristate 13-acetate (PMA) (Sigma, P1585) of 50 ng/ml overnight at 37° C. at 5% CO2 for differentiation. Cells were harvested the next day after rinsing well with dPBS using 0.5% trypsin. A cell solution was prepared of 1×10^6 cells/ml for 50,000 cells in 50 μl/well in RPMI media with 2% FBS. Cells were plated using a multichannel pipette onto the compound dilutions in Greiner, 384 well, black clear bottom tissue culture treated plates (781090). The plates were incubated in 37° C. incubator at 5% CO2 for 2 hours.
# After the 2 hour incubation, the cell plates were spun in the centrifuge for 5 minutes at 1200 rpm. Using the Felix (CyBio), 8 μl of the supernatant was transferred to 384 well, low volume, white proxy plates. (Perkin Elmer, 6008230). A human IL1beta hTRF kit was used to analyze the supernatant (CISBIO, 62HIL1BPEG). The kit instructions were followed for preparing the IL1Beta standard curve and then the antibodies from the kit were diluted 1:40 rather than 1:20 as kit instructed.
# T1 sequence (Q96P20 whole entry): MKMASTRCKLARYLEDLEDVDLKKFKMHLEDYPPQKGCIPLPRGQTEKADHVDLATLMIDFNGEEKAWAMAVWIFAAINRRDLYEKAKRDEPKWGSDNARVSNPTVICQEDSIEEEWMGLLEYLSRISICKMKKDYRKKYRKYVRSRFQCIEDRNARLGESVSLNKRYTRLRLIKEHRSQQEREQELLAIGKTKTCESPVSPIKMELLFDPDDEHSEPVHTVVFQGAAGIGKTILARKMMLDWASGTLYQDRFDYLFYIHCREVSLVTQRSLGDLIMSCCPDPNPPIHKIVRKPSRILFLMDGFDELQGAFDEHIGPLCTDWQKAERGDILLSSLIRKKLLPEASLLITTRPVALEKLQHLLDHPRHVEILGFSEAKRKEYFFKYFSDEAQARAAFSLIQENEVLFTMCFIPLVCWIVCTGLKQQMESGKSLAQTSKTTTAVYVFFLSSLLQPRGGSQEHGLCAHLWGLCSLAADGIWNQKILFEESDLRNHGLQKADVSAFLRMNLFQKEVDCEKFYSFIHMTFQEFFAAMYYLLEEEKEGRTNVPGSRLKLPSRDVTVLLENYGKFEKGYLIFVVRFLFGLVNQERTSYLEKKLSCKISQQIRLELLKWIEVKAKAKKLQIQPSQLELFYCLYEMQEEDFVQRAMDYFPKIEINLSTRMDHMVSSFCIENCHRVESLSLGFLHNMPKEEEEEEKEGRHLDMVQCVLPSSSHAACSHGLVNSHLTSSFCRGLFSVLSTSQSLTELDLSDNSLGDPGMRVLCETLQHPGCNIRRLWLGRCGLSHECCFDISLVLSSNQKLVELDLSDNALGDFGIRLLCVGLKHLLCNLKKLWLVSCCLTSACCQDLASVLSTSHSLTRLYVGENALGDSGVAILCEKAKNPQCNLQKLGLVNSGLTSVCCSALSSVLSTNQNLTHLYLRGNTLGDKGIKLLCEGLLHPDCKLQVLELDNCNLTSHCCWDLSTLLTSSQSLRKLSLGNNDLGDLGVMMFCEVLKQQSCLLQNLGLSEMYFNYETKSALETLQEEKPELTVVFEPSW
row,EC50 [nM],SMILES
1,3650,"CO[C@@H]1C[C@@H](Nc2nc(N)nc3cc(-c4ccn[nH]4)ccc23)C[C@H]1O (racemic) [Example 141, rac-(1R,2R,4S)-4-((2-amino-7-(1H-pyrazol-5-yl)quinazolin-4-yl)amino)-2-methoxycyclopentan-1-ol]"
2,4420,"Cn1ccnc1C(O)CNc1nc(N)nc2cc(-c3ccn[nH]3)ccc12 (single isomer, unassigned) [Example 149, 2-((2-amino-7-(1H-pyrazol-5-yl)quinazolin-4-yl)amino)-1-(1-methyl-1H-imidazol-2-yl)ethan-1-ol]"
3,2450,"Cn1ccnc1C(O)CNc1nc(N)nc2cc(-c3ccn[nH]3)ccc12 (single isomer, unassigned) [Example 150, 2-((2-amino-7-(1H-pyrazol-5-yl)quinazolin-4-yl)amino)-1-(1-methyl-1H-imidazol-2-yl)ethan-1-ol]"
4,240,"Nc1nc(N[C@@H]2C[C@H]2c2cccnc2)c2ccc(-c3ccn[nH]3)cc2n1 (single isomer, unassigned) [Example 162, 7-(1H-pyrazol-5-yl)-N4-((trans)-2-(pyridin-3-yl)cyclopropyl)quinazoline-2,4-diamine]"
5,650,"Nc1nc(N[C@@H]2C[C@H]2c2cccnc2)c2ccc(-c3ccn[nH]3)cc2n1 (single isomer, unassigned) [Example 163, 7-(1H-pyrazol-5-yl)-N4-((trans)-2-(pyridin-3-yl)cyclopropyl)quinazoline-2,4-diamine]"
6,660,"Nc1nc(N[C@H]2CCC[C@@H](O)C2)c2ccc(-c3ccn[nH]3)cc2n1 (single isomer, unassigned) [Example 178, (cis)-3-((2-amino-7-(1H-pyrazol-5-yl)quinazolin-4-yl)amino)cyclohexan-1-ol]"
7,270,"Nc1nc(N[C@H]2CCC[C@@H](O)C2)c2ccc(-c3ccn[nH]3)cc2n1 (single isomer, unassigned) [Example 179, (cis)-3-((2-amino-7-(1H-pyrazol-5-yl)quinazolin-4-yl)amino)cyclohexan-1-ol]"
8,170,"N#C[C@H]1CC[C@H](Nc2nc(N)nc3cc(-c4ccn[nH]4)ccc23)C1 (single isomer, unassigned) [Example 185, (trans)-3-((2-amino-7-(1H-pyrazol-5-yl)quinazolin-4-yl)amino)cyclopentane-1-carbonitrile]"
9,70,"Nc1nc(NCC2CC2(F)F)c2ccc(-c3cc[nH]n3)cc2n1 (single isomer, unassigned) [Example 198, N4-((2,2-Difluorocyclopropyl)methyl)-7-(1H-pyrazol-3-yl)quinazoline-2,4-diamine]"
10,80,"Nc1nc(NCC2CC2(F)F)c2ccc(-c3cc[nH]n3)cc2n1 (single isomer, unassigned) [Example 199, N4-((2,2-Difluorocyclopropyl)methyl)-7-(1H-pyrazol-3-yl)quinazoline-2,4-diamine]"
11,860,"CC(CCO)Nc1nc(N)nc2cc(-c3ccn[nH]3)ccc12 (single isomer, unassigned) [Example 200, 3-((2-amino-7-(1H-pyrazol-5-yl)quinazolin-4-yl)amino)butan-1-ol]"

# Second part, the compound before the results:
row,SMILES,EC50 [nM]
1,"CC(C)(O)C(O)CNc1nc(N)nc2cc(-c3ccn[nH]3)ccc12 (racemic) [Example 8, rac-1-((2-amino-7-(1H-pyrazol-5-yl)quinazolin-4-yl)amino)-3-methylbutane-2,3-diol]",2150
2,"CC(O)(CO)CNc1nc(N)nc2cc(-c3ccn[nH]3)ccc12 (racemic) [Example 11, rac-3-((2-amino-7-(1H-pyrazol-5-yl)quinazolin-4-yl)amino)-2-methylpropane-1,2-diol]",1140
3,"Nc1nc(N[C@H]2CCC[C@@H](O)C2)c2c(F)cc(-c3cc[nH]n3)cc2n1 (racemic) [Example 16, cis-3-((2-amino-5-fluoro-7-(1H-pyrazol-3-yl)quinazolin-4-yl)amino)cyclohexan-1-ol]",780
4,"Nc1nc(N[C@H]2CCC[C@H](O)C2)c2c(F)cc(-c3cc[nH]n3)cc2n1 (racemic) [Example 17, trans-3-((2-amino-5-fluoro-7-(1H-pyrazol-3-yl)quinazolin-4-yl)amino)cyclohexan-1-ol]",950
5,"Nc1nc(N[C@@H]2COC[C@H]2O)c2ccc(-c3ccn[nH]3)cc2n1 (racemic) [Example 25, trans-4-((2-amino-7-(1H-pyrazol-5-yl)quinazolin-4-yl)amino)tetrahydrofuran-3-ol]",720
6,Nc1nc(N[C@H]2CCCC[C@H]2CO)c2ccc(-c3ccn[nH]3)cc2n1 (racemic) [Example 57],800
7,Nc1nc(NC[C@@H]2CCCC[C@@H]2O)c2ccc(-c3ccn[nH]3)cc2n1 (racemic) [Example 77],650
8,C[C@]1(O)CC[C@@H](Nc2nc(N)nc3cc(-c4ccn[nH]4)ccc23)C1 (racemic) [Example 107],670
9,C[C@@]1(O)CC[C@@H](Nc2nc(N)nc3cc(-c4ccn[nH]4)ccc23)C1 (racemic) [Example 108],4170
10,Nc1nc(NC2C[C@@H](O)[C@H](O)C2)c2ccc(-c3ccn[nH]3)cc2n1 (racemic) [Example 109],1950
11,Nc1nc(N[C@@H]2CC[C@@H](O)[C@@H]2O)c2ccc(-c3ccn[nH]3)cc2n1 (racemic) [Example 110],640
12,Nc1nc(N[C@H]2C[C@@H](O)C[C@@H]2O)c2ccc(-c3cc[nH]n3)cc2n1 (racemic) [Example 117],1560
13,Nc1nc(N[C@H]2C[C@H](O)C[C@@H]2O)c2ccc(-c3cc[nH]n3)cc2n1 (racemic) [Example 118],980
14,"Nc1nc(NCC2CCC(=O)N2)c2ccc(-c3ccn[nH]3)cc2n1 (single isomer, unassigned) [Example 5, 5-(((2-amino-7-(1H-pyrazol-5-yl)quinazolin-4-yl)amino)methyl)pyrrolidin-2-one]",13000
15,"Nc1nc(NCC2CCC(=O)N2)c2ccc(-c3ccn[nH]3)cc2n1 (single isomer, unassigned) [Example 6, 5-(((2-amino-7-(1H-pyrazol-5-yl)quinazolin-4-yl)amino)methyl)pyrrolidin-2-one]",2110
16,"CC(C)(O)C(O)CNc1nc(N)nc2cc(-c3ccn[nH]3)ccc12 (single isomer, unassigned) [Example 9, 1-((2-amino-7-(1H-pyrazol-5-yl)quinazolin-4-yl)amino)-3-methylbutane-2,3-diol]",1310
17,"CC(C)(O)C(O)CNc1nc(N)nc2cc(-c3ccn[nH]3)ccc12 (single isomer, unassigned) [Example 10, 1-((2-amino-7-(1H-pyrazol-5-yl)quinazolin-4-yl)amino)-3-methylbutane-2,3-diol]",1860
18,"Nc1nc(N[C@H]2COC[C@@H](O)C2)c2ccc(-c3ccn[nH]3)cc2n1 (single isomer, unassigned) [Example 12]",3920
19,"Nc1nc(N[C@H]2COC[C@@H](O)C2)c2ccc(-c3ccn[nH]3)cc2n1 (single isomer, unassigned) [Example 13]",1180
20,"CCCC(CCO)Nc1nc(N)nc2cc(-c3ccn[nH]3)ccc12 (single isomer, unassigned) [Example 98, 3-((2-amino-7-(1H-pyrazol-5-yl)quinazolin-4-yl)amino)hexan-1-ol]",860
21,"CCCCC(CCO)Nc1nc(N)nc2cc(-c3ccn[nH]3)ccc12 (single isomer, unassigned) [Example 101, 3-((2-amino-7-(1H-pyrazol-5-yl)quinazolin-4-yl)amino)heptan-1-ol]",830

# Source: US12187706B2, “NLRP3 modulators” (INNATE TUMOR IMMUNITY, INC., priority 2019, dated 2025)
